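Protocol summary: plate cells (96-well), add compound at 5 concentrations, incubate 48 h, interpolate endpoints linearly. Definition used: TGI = concentration required for complete inhibition of growth.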
Tests used:
Test in all cases: NCI-60 cell line screen, 48 h
PC-3 prostate = system: PC-3 prostate
RXF 393 renal = system: RXF 393 renal
K-562 leukemia = system: K-562 leukemia
T-47D breast = system: T-47D breast
IGROV1 ovarian = system: IGROV1 ovarian
MDA-MB-231 breast = system: MDA-MB-231 breast
NCI-H522 lung = system: NCI-H522 lung
OVCAR-8 ovarian = system: OVCAR-8 ovarian
HOP-92 NSCLC = system: HOP-92 NSCLC
HT29 colon = system: HT29 colon
HL-60(TB) leukemia = system: HL-60(TB) leukemia
MALME-3M melanoma = system: MALME-3M melanoma
CCRF-CEM leukemia = system: CCRF-CEM leukemia
OVCAR-5 ovarian = system: OVCAR-5 ovarian
SK-MEL-5 melanoma = system: SK-MEL-5 melanoma
SNB-19 CNS = system: SNB-19 CNS
UACC-257 melanoma = system: UACC-257 melanoma
786-0 renal = system: 786-0 renal
HS 578T breast = system: HS 578T breast
SK-OV-3 ovarian = system: SK-OV-3 ovarian
SK-MEL-2 melanoma = system: SK-MEL-2 melanoma
KM12 colon = system: KM12 colon
SF-295 CNS = system: SF-295 CNS
HCT-15 colon = system: HCT-15 colon
SF-539 CNS = system: SF-539 CNS
DU-145 prostate = system: DU-145 prostate
NCI-H226 lung = system: NCI-H226 lung
SK-MEL-28 melanoma = system: SK-MEL-28 melanoma
OVCAR-3 ovarian = system: OVCAR-3 ovarian
RPMI-8226 leukemia = system: RPMI-8226 leukemia
COLO 205 colon = system: COLO 205 colon
CAKI-1 renal = system: CAKI-1 renal
MOLT-4 leukemia = system: MOLT-4 leukemia
OVCAR-4 ovarian = system: OVCAR-4 ovarian
SNB-75 CNS = system: SNB-75 CNS
UO-31 renal = system: UO-31 renal
ACHN renal = system: ACHN renal
A549 NSCLC = system: A549 NSCLC
SN12C renal = system: SN12C renal
HCT-116 colon = system: HCT-116 colon
LOX IMVI melanoma = system: LOX IMVI melanoma
MDA-MB-435 = system: MDA-MB-435
SF-268 CNS = system: SF-268 CNS
SR leukemia = system: SR leukemia
MDA-N = system: MDA-N
TK-10 renal = system: TK-10 renal
NCI/ADR-RES ovarian = system: NCI/ADR-RES ovarian
UACC-62 melanoma = system: UACC-62 melanoma
MCF7 breast = system: MCF7 breast
U251 CNS = system: U251 CNS
BT-549 breast = system: BT-549 breast
NCI-H23 lung = system: NCI-H23 lung
SW-620 colon = system: SW-620 colon
A498 renal = system: A498 renal
M14 melanoma = system: M14 melanoma
HOP-62 NSCLC = system: HOP-62 NSCLC
EKVX NSCLC = system: EKVX NSCLC
HCC-2998 colon = system: HCC-2998 colon
NCI-H460 lung = system: NCI-H460 lung

Compound `CCN(CC)CCNC(=O)c1cn2c(ccc3sc4ccccc4c(=O)c32)n1` has a TGI (PC-3 prostate) of 23.4 µM, a TGI (RXF 393 renal) of 24.2 µM and a TGI (K-562 leukemia) of 36.8 µM. It also gave a TGI (T-47D breast) of 30 µM, a TGI (IGROV1 ovarian) of 21.3 µM and a TGI (MDA-MB-231 breast) of 27.5 µM. It also gave a TGI (NCI-H522 lung) of 25.6 µM, a TGI (OVCAR-8 ovarian) of 31.8 µM and a TGI (HOP-92 NSCLC) of 24.6 µM. For the same compound, the TGI (HT29 colon) was 20.4 µM, the TGI (HL-60(TB) leukemia) was 25.4 µM and the TGI (MALME-3M melanoma) was 26.9 µM. It also gave a TGI (CCRF-CEM leukemia) of 25.3 µM, a TGI (OVCAR-5 ovarian) of 21.7 µM and a TGI (SK-MEL-5 melanoma) of 22.9 µM. It also gave a TGI (SNB-19 CNS) of 27.5 µM, a TGI (UACC-257 melanoma) of 30.1 µM and a TGI (786-0 renal) of 19.5 µM. It also gave a TGI (HS 578T breast) of 34.6 µM, a TGI (SK-OV-3 ovarian) of 25.5 µM and a TGI (SK-MEL-2 melanoma) of 38 µM. For the same compound, the TGI (KM12 colon) was 24.9 µM, the TGI (SF-295 CNS) was 23.9 µM and the TGI (HCT-15 colon) was 21.2 µM. The TGI (SF-539 CNS) was 24.9 µM, the TGI (DU-145 prostate) was 25 µM and the TGI (NCI-H226 lung) was 40.6 µM. It also gave a TGI (SK-MEL-28 melanoma) of 25.6 µM, a TGI (OVCAR-3 ovarian) of 26.7 µM and a TGI (RPMI-8226 leukemia) of 29 µM. The TGI (COLO 205 colon) was 21.1 µM, the TGI (CAKI-1 renal) was 24.2 µM and the TGI (MOLT-4 leukemia) was 11.9 µM. The TGI (OVCAR-4 ovarian) was 22.8 µM, the TGI (SNB-75 CNS) was 32.6 µM and the TGI (UO-31 renal) was 21 µM. For the same compound, the TGI (ACHN renal) was 18.6 µM, the TGI (A549 NSCLC) was 21 µM and the TGI (SN12C renal) was 23.7 µM. The TGI (HCT-116 colon) was 20.7 µM, the TGI (LOX IMVI melanoma) was over 48.9 µM and the TGI (MDA-MB-435) was 54 µM. It also gave a TGI (SF-268 CNS) of 24.8 µM, a TGI (SR leukemia) of 26.6 µM and a TGI (MDA-N) of 28.4 µM. For the same compound, the TGI (TK-10 renal) was 19.1 µM, the TGI (NCI/ADR-RES ovarian) was 27.8 µM and the TGI (UACC-62 melanoma) was 29.1 µM. The TGI (MCF7 breast) was 38.2 µM, the TGI (U251 CNS) was over 51.6 µM and the TGI (BT-549 breast) was 28.5 µM. For the same compound, the TGI (NCI-H23 lung) was 28.4 µM, the TGI (SW-620 colon) was 20.3 µM and the TGI (A498 renal) was 33.4 µM. For the same compound, the TGI (M14 melanoma) was 29 µM, the TGI (HOP-62 NSCLC) was 21.4 µM and the TGI (EKVX NSCLC) was 35.3 µM. For the same compound, the TGI (HCC-2998 colon) was 24.3 µM and the TGI (NCI-H460 lung) was 14.9 µM.

In the case of `O=[N+]([O-])c1ccc(C=NCC2CCCN3CCCCC23)cc1` (centres undefined), the TGI (PC-3 prostate) is reported as over 100 µM, the TGI (RXF 393 renal) is reported as over 100 µM and the TGI (K-562 leukemia) is reported as over 100 µM. It also gave a TGI (T-47D breast) of over 100 µM, a TGI (IGROV1 ovarian) of over 100 µM and a TGI (MDA-MB-231 breast) of over 100 µM. The TGI (NCI-H522 lung) was over 100 µM, the TGI (OVCAR-8 ovarian) was over 100 µM and the TGI (HOP-92 NSCLC) was over 100 µM. For the same compound, the TGI (HT29 colon) was 34.9 µM, the TGI (HL-60(TB) leukemia) was over 100 µM and the TGI (MALME-3M melanoma) was over 100 µM. It also gave a TGI (CCRF-CEM leukemia) of over 100 µM, a TGI (OVCAR-5 ovarian) of over 100 µM and a TGI (SK-MEL-5 melanoma) of over 100 µM. The TGI (SNB-19 CNS) was over 100 µM, the TGI (UACC-257 melanoma) was over 100 µM and the TGI (786-0 renal) was 52.1 µM. The TGI (HS 578T breast) was over 100 µM, the TGI (SK-OV-3 ovarian) was over 100 µM and the TGI (SK-MEL-2 melanoma) was over 100 µM. It also gave a TGI (KM12 colon) of over 100 µM, a TGI (SF-295 CNS) of over 100 µM and a TGI (HCT-15 colon) of over 100 µM. The TGI (DU-145 prostate) was over 100 µM, the TGI (SK-MEL-28 melanoma) was over 100 µM and the TGI (RPMI-8226 leukemia) was 48.1 µM. The TGI (COLO 205 colon) was over 100 µM, the TGI (CAKI-1 renal) was over 100 µM and the TGI (MOLT-4 leukemia) was over 100 µM. It also gave a TGI (OVCAR-4 ovarian) of over 100 µM, a TGI (SNB-75 CNS) of over 100 µM and a TGI (UO-31 renal) of over 100 µM. The TGI (ACHN renal) was over 100 µM, the TGI (A549 NSCLC) was over 100 µM and the TGI (SN12C renal) was over 100 µM. It also gave a TGI (HCT-116 colon) of over 100 µM, a TGI (LOX IMVI melanoma) of 30.4 µM and a TGI (MDA-MB-435) of over 100 µM. For the same compound, the TGI (SF-268 CNS) was over 100 µM, the TGI (SR leukemia) was over 100 µM and the TGI (MDA-N) was over 100 µM. For the same compound, the TGI (TK-10 renal) was over 100 µM, the TGI (NCI/ADR-RES ovarian) was over 100 µM and the TGI (UACC-62 melanoma) was over 100 µM. The TGI (MCF7 breast) was 66.6 µM, the TGI (U251 CNS) was over 100 µM and the TGI (BT-549 breast) was over 100 µM. It also gave a TGI (NCI-H23 lung) of over 100 µM, a TGI (SW-620 colon) of over 100 µM and a TGI (A498 renal) of over 100 µM. For the same compound, the TGI (M14 melanoma) was over 100 µM, the TGI (HOP-62 NSCLC) was over 100 µM and the TGI (EKVX NSCLC) was over 100 µM. For the same compound, the TGI (HCC-2998 colon) was over 100 µM and the TGI (NCI-H460 lung) was over 100 µM.

With `Cc1ccc(S(=O)(=O)NNC(=O)c2cc(C)c(C)cc2N)cc1` the TGI (PC-3 prostate) was over 100 µM, the TGI (RXF 393 renal) was over 100 µM and the TGI (K-562 leukemia) was over 100 µM. It also gave a TGI (T-47D breast) of over 100 µM, a TGI (IGROV1 ovarian) of over 100 µM and a TGI (MDA-MB-231 breast) of over 100 µM. For the same compound, the TGI (NCI-H522 lung) was over 100 µM, the TGI (OVCAR-8 ovarian) was over 100 µM and the TGI (HOP-92 NSCLC) was over 100 µM. The TGI (HT29 colon) was over 100 µM, the TGI (HL-60(TB) leukemia) was over 100 µM and the TGI (MALME-3M melanoma) was over 100 µM. It also gave a TGI (CCRF-CEM leukemia) of over 100 µM, a TGI (OVCAR-5 ovarian) of over 100 µM and a TGI (SK-MEL-5 melanoma) of over 100 µM. For the same compound, the TGI (SNB-19 CNS) was over 100 µM, the TGI (UACC-257 melanoma) was over 100 µM and the TGI (786-0 renal) was over 100 µM. For the same compound, the TGI (HS 578T breast) was over 100 µM, the TGI (SK-OV-3 ovarian) was over 100 µM and the TGI (KM12 colon) was over 100 µM. It also gave a TGI (SF-295 CNS) of over 100 µM, a TGI (HCT-15 colon) of over 100 µM and a TGI (SF-539 CNS) of over 100 µM. For the same compound, the TGI (DU-145 prostate) was over 100 µM, the TGI (NCI-H226 lung) was over 100 µM and the TGI (SK-MEL-28 melanoma) was over 100 µM. It also gave a TGI (OVCAR-3 ovarian) of over 100 µM, a TGI (RPMI-8226 leukemia) of over 100 µM and a TGI (COLO 205 colon) of over 100 µM. For the same compound, the TGI (CAKI-1 renal) was over 100 µM, the TGI (MOLT-4 leukemia) was over 100 µM and the TGI (OVCAR-4 ovarian) was over 100 µM. It also gave a TGI (SNB-75 CNS) of over 100 µM, a TGI (UO-31 renal) of over 100 µM and a TGI (ACHN renal) of over 100 µM. It also gave a TGI (SN12C renal) of over 100 µM, a TGI (HCT-116 colon) of over 100 µM and a TGI (LOX IMVI melanoma) of over 100 µM. For the same compound, the TGI (MDA-MB-435) was over 100 µM, the TGI (SR leukemia) was over 100 µM and the TGI (MDA-N) was over 100 µM. The TGI (NCI/ADR-RES ovarian) was over 100 µM, the TGI (UACC-62 melanoma) was over 100 µM and the TGI (MCF7 breast) was over 100 µM. It also gave a TGI (U251 CNS) of over 100 µM, a TGI (BT-549 breast) of over 100 µM and a TGI (NCI-H23 lung) of over 100 µM. It also gave a TGI (SW-620 colon) of over 100 µM, a TGI (A498 renal) of over 100 µM and a TGI (HOP-62 NSCLC) of over 100 µM. It also gave a TGI (EKVX NSCLC) of over 100 µM, a TGI (HCC-2998 colon) of over 100 µM and a TGI (NCI-H460 lung) of over 100 µM.

Source: PubChem BioAssay (NCI)
